Values joined by “and” are separate entries in the source; they are usually repeats but may differ in a detail not shown here. Equal values may be shown once. “Also recorded” adds a separate entry of the source. Where a name gives a salt, the structure may show the parent alone. A value given as a limit tells only on which side of the number the result lay.

Consider nine compounds from publication PMC11415492 (Nature Communications, 2024).

In data set [1] the test system is male Fisher F-344 rats. The note with it: preclinical assays in rats; cited from earlier work.
Data set [2] deals with mice. Briefly: Open field test (locomotion, sedation). The data set is classed as in vivo, mouse. The arrangement: unit not given here. Particulars: groups not marked Female. As to the method:
Mice were transferred to the testing room 30 min before the experiment to allow for acclimation. Body weight of each mouse was recorded. For experiments with antagonist, pre-treatment, the dosing and after application wait times were the same as for the tail-flick test. Mice were administered an ED50, ED80 or >ED95 doses of test compound (volume of injection 290–350 µL based on body weight). After injection, mice were returned to the home cage and allowed to rest for 30 min. Each mouse was then gently placed in the center of a clear Plexiglas arena (27.31 × 27.31 × 20.32 cm, Med Associates ENV-510) lit with dim light ( ~ 5 lux) and allowed to ambulate freely for 60 minutes. The locomotion of the mouse was tracked by infrared beams embedded along the X, Y, Z axes of the area and automatically recorded. Data was collected on Activity Monitor by Med Associates.
Statistical analysis was performed using the unpaired t-test, two-tailed with Welch’s correction to analyze total locomotion and a two-way ANOVA with Šidák’s multiple comparison test for post hoc comparison to analyze locomotion across time bins.

The target in data set [3] is T1, hSERT (Homo sapiens, UniProt P31645).
T1 construct: expressed in transfected cells
T1 sequence (P31645 whole entry): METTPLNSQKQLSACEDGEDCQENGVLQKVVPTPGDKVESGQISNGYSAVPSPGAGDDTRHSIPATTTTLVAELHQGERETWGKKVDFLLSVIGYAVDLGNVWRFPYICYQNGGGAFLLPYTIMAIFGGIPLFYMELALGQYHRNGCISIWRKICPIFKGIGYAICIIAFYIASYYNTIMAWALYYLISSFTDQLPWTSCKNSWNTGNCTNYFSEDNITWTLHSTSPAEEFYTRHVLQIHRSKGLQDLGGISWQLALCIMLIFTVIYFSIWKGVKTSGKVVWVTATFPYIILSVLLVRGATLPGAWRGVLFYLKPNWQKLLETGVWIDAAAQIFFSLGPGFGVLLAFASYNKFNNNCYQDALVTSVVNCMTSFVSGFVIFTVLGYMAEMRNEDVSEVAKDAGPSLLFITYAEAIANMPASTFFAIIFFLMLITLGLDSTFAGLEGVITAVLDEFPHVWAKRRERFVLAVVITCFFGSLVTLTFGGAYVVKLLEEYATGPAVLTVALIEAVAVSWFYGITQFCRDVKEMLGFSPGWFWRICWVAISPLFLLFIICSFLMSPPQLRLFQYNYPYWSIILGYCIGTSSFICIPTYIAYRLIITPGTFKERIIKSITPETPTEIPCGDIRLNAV
Briefly: hSERT inhibition assay (APP+ fluorescence uptake). The data set is classed as cell-based. As to the method:
Stably transfected hSERT-HEK cellular cultures were maintained in Dulbecco’s Minimal Essential Medium (DMEM) with GlutaMAX (Gibco-Thermo Fisher Scientific, Waltham, MA) with the following additions: 10% (v/v) Fetal Bovine Serum (FBS, Atlanta Biologicals, Flowery Branch, GA), 100 U/mL Penicillin 10 μg/mL Streptomycin (Gibco-Thermo Fisher Scientific, Waltham, MA), and 500 μg/mL Geneticin (G418) (Sigma Aldrich, St. Louis, MO). Singly transfected cells were seeded at a density of 0.09 × 10^6 cells/well in poly-D-Lysine (Sigma Aldrich, St. Louis, MO) coated white solid-bottom 96-well plates (Greiner Bio-One, Kremsmünster, Austria). Cells were grown for 44 h in aqueous media at 37 °C under 5% CO2 atmosphere. […] A final solution of 120 μL of PBS was finally added to all corresponding wells for cell maintenance before measuring fluorescence uptake (BioTek H1MF plate reader (BioTek Instruments, Winooski, VT), APP+ excitation and emission wavelengths 436 and 500 nm). Recorded inhibitor values were first subtracted from vehicular values to quantify the respective fluorescence uptake. Data were analyzed using the dose-response-inhibitor nonlinear curve fitting model (log[inhibitor] vs response (four parameters) in Graphpad Prism 10 (Graphpad Software, La Jolla, CA).

Data set [4] relates to monkeys. The note with it: daily dosing prior to SA sessions (14 days); cited from earlier work.
In data set [5] the target is T2, hKOR (Homo sapiens, UniProt P41145).
T2 construct: expressed in transfected cells; host or cells: HEK-293T, transient (PEI)
T2 sequence (P41145 whole entry): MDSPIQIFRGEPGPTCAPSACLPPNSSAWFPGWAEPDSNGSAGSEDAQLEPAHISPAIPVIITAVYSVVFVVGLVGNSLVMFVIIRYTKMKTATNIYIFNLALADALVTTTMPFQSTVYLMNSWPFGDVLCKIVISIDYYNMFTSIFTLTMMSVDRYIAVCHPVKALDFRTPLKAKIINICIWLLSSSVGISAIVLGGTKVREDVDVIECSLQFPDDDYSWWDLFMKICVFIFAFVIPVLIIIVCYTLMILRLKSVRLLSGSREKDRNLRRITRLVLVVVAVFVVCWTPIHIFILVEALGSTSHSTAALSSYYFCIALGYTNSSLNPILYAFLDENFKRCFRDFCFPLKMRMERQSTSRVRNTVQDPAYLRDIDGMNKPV
Description: KOR [35S]GTPγS agonist assay (commercial). The data set is classed as biochemical. Particulars: Log [Drug]. A general note: GTPγS is a poorly hydrolysed GTP analogue; its binding reports G protein activation.

The subject of data set [6] is male rats. The note with it: cited from earlier work.
The test system of data set [7] is GDNF. Briefly: GDNF expression studies (ELISA, brain regions). The data set is classed as in vivo, rat. Particulars: aticaprant 1 mg/kg s.c. before oxa-noribogaine 40 mg/kg i.p. As to the method:
One day or five days after drug administration, rats from these groups as well as non-treated controls were decapitated, brains removed and placed in a stainless-steel rat brain matrix. Coronal slices were taken and the ventral tegmental area (VTA), nucleus accumbens (NAc) and medial prefrontal cortex (mPFC) were dissected and immediately frozen on dry ice. Total protein was isolated from pulverized tissue (8–15 mg tissue per region was harvested from one subject) from these regions. GDNF contents were assayed using the BiosSensis GDNF, Rat, Rapid™ ELISA assay (Biosensis Pty Ltd, SA, Australia). Protease (Thermo Scientific, Rockford, IL), and phosphatase inhibitors (Cocktails 1 and 2, Sigma-Aldrich, St. Louis, MO) were added to the extraction buffers. Regardless of sample weight 230uL of RIPA buffer (Sigma; R0278) was added into each sample along with protease inhibitors. […] Protein concentrations were measured using the bicinchoninic acid protein assay kit (Pierce, Rockford, IL, USA) on a spectrophotometer (iD5, Molecular Devices, Sunnyvale, CA). […] In a separate cohort, we assessed the ability of the kappa antagonist aticaprant to attenuate the oxa-noribogaine induced increase in GDNF in the VTA and mPFC five days after administration. […] Data were analyzed by protein and region using one way ANOVA with Tukey’s multiple comparison test for post hoc comparison.

In data set [8] the target is T2, hKOR. Description: G protein activation BRET assay. The data set is classed as cell-based. The note with it: for EC50: HEK-293T, (95% CI); for % effect at 100 µM: n = 4. (BRET reads energy transfer from a luciferase to a nearby fluorophore.)

Take `COCC[C@H]1CC2CN3CCc4c([nH]c5ccccc45)[C@](C(=O)OC)(C2)[C@H]13` [18MC, 18-methoxycoronaridine]: in data set [1], the “effect on morphine intake” value is “efficacy and duration of effect on morphine intake comparable to ibogaine and noribogaine”. `Cc1cc(C)cc([C@@H]2CCCN2Cc2ccc(Oc3ccc(C(N)=O)cc3F)cc2)c1` [Aticaprant (ATI)]: in data set [2], the “Open field total locomotion, individual animals (Fig. 3h source data)” value was 98.5549 and 70.7237 and 76.3275 and 70.7309 and 115.865 and 89.5078 and 98.6683 and 78.3135. By Emax is commonly meant the greatest response seen or fitted, relative to the assay's reference. Turning to `CN(C)CCCN1c2ccccc2CCc2ccccc21` [Imipramine, imipramine hydrochloride], in data set [3], the Emax was determined as 100%. For the compound `C[C@H]1CNCCc2ccc(Cl)cc21` [Lorcaserin, lorcaserin], in data set [4], the “suppression of cocaine SA” value was “the suppression effect completely dissipated as soon as the treatment ended”.

Regarding `CC[C@H]1C[C@H]2C[C@H]3c4[nH]c5ccc(O)cc5c4CCN(C2)[C@@H]13` [NORIBO], the “response, Fig. S5a concentration-response point” value is 66 in data set [5] (M = -4); 55 in data set [5] (M = -4.5); 39 in data set [5] (M = -5); 20 in data set [5] (M = -5.5); 7 in data set [5] (M = -6); 2 in data set [5] (M = -6.5).

For `COc1ccc2c3c([nH]c2c1)CCN(C)CC3` [TBG], the “effect on heroin SA” value in data set [6] is reported as “no lasting effect on heroin SA”. Consider `Cc1cc(C)cc([C@@H]2CCCN2Cc2ccc(Oc3ccc(C(N)=O)cc3F)cc2)c1` [aticaprant], for which, in data set [7], the “effect of pre-treatment on oxa-noribogaine-induced GDNF increase” value was “the induction of GDNF was blocked in both mPFC and VTA; also recorded: prevents the increase of GDNF expression in mPFC and VTA”.

The EC50 is the midpoint of the concentration-response curve. Consider Epi-oxa-ibogamine, for which, in data set [8], the EC50 was more than 10 µM and the “% effect at 100 µM” value worked out at 46%. For Oxa-ibogamine, in that order: more than 10 µM and 56%.
